Common to all, as to format: physicochemical
Data set [1] is described as follows: Water solubility of crystalline ozanimod salt forms (Comparative Example 1). The method, then:
The water solubility of crystalline forms of ozanimod salts of Examples 1 to 124 and ozanimod hydrochloride of Preparation Example 2 were tested.

A short description of data set [2]: Phase stability in aqueous system, slurry for 5 days (Comparative Example 2). The note with it: slurry 5 days. The method, then: The phase stability of crystalline forms of ozanimod salts of Examples 1 to 124 and ozanimod hydrochloride crystalline form of Preparation Example 2 were tested in aqueous system.
Data set [3] in a line: Isothermal adsorption curve (dynamic vapor sorption), weight change. The note with it: in the range of 0% to 50%. As to the method: Dynamic vapor sorption data and isothermal sorption data are collected on TA Instruments Q5000 TGA. A sample of 1 to 10 mg is usually placed in a platinum pan; and the TA software records the change in weight of the sample during relative humidity from 0% to 80% to 0%. Depending on the specifics of the sample, different adsorption and desorption steps are also applied to the sample.

Structures can show the parent of a compound that is named as a salt. Where two headings read alike, the source gives them in different places.

Regarding `CC(C)Oc1ccc(-c2nc(-c3cccc4c3CC[C@@H]4NCCO)no2)cc1C#N.CC(C)Oc1ccc(-c2nc(-c3cccc4c3CC[C@@H]4NCCO)no2)cc1C#N.O=C(O)C[C@H](O)C(=O)O` [Ozanimod hemi-L-malate Form 1], in data set [1] (25° C.), the “25° C. water solubility” value was found to be 10550 µg/mL. Besides, the “37° C. water solubility” value in data set [1] (37° C.) came to 22620 µg/mL. Besides, in data set [2], the “Slurry for 5 days in ethanol/water (1:1) (solid state after slurry)” value (from here on “Slurry for 5 days in ethanol/water”) is listed as “Crystalline” and the “Slurry for 5 days in water (solid state after slurry)” value (“Slurry for 5 days in water” for short) is on record as “Crystalline”.

For the compound `CC(C)Oc1ccc(-c2nc(-c3cccc4c3CCC4NCCO)no2)cc1C#N.O=S(=O)(O)O` (stereo not drawn) [Ozanimod hydrosulfate Form 1], in data set [2], the “Slurry for 5 days in ethanol/water” value is on record as “Crystalline” and the “Slurry for 5 days in water” value was “Crystalline”.

As for `CC(C)Oc1ccc(-c2nc(-c3cccc4c3CC[C@@H]4NCCO)no2)cc1C#N` [Ozanimod hydrochloride form, reference compound], the “weight change according to the isothermal adsorption curve” value in data set [3] is 0.14%. Moreover, in data set [1] (25° C., read-out: 25° C. water solubility), the solubility was 610 µg/mL. Moreover, the solubility in data set [1] (37° C., read-out: 37° C. water solubility) amounted to 2450 µg/mL. For the same compound, in data set [2], the “Slurry for 5 days in ethanol/water” value is on record as “Weak crystallinity” and the “Slurry for 5 days in water” value is listed as “Amorphous”.

Regarding `CC(C)Oc1ccc(-c2nc(-c3cccc4c3CCC4NCCO)no2)cc1C#N.CC(C)Oc1ccc(-c2nc(-c3cccc4c3CCC4NCCO)no2)cc1C#N.O=C(O)C=CC(=O)O` (stereo not drawn) [Ozanimod hemi-fumarate Form 1], in data set [2], the “Slurry for 5 days in ethanol/water” value is “Crystalline” and the “Slurry for 5 days in water” value was “Crystalline”.

Regarding `CC(C)Oc1ccc(-c2nc(-c3cccc4c3CCC4NCCO)no2)cc1C#N.CC(C)Oc1ccc(-c2nc(-c3cccc4c3CCC4NCCO)no2)cc1C#N.O=S(=O)(O)O` (stereo not drawn) [Ozanimod hemisulfate Form 1], in data set [2], the “Slurry for 5 days in ethanol/water” value was “Crystalline” and the “Slurry for 5 days in water” value was “Crystalline”.

Take `CC(C)Oc1ccc(-c2nc(-c3cccc4c3CC[C@@H]4NCCO)no2)cc1C#N.O=S(=O)(O)c1ccccc1` [Ozanimod besylate Form 1]: in data set [3], the “weight change according to the isothermal adsorption curve” value is given as 0.05%. In data set [2], the “Slurry for 5 days in ethanol/water” value is “Crystalline” and the “Slurry for 5 days in water” value is “Crystalline”.

As for `CC(C)Oc1ccc(-c2nc(-c3cccc4c3CC[C@@H]4NCCO)no2)cc1C#N.O=C(O)/C=C/C(=O)O` [Ozanimod fumarate Form 1], in data set [1] (25° C.), the “25° C. water solubility” value is 2340 µg/mL. Also, the “37° C. water solubility” value in data set [1] (37° C.) amounted to 4550 µg/mL. Besides, in data set [2], the “Slurry for 5 days in ethanol/water” value is given as “Crystalline” and the “Slurry for 5 days in water” value was “Crystalline”.

For the compound `Br.CC(C)Oc1ccc(-c2nc(-c3cccc4c3CC[C@@H]4NCCO)no2)cc1C#N` [Ozanimod hydrobromide Form 1], the “25° C. water solubility” value in data set [1] (25° C.) was found to be 780 µg/mL. In addition, in data set [1] (37° C.), the “37° C. water solubility” value came to 3490 µg/mL. In data set [2], the “Slurry for 5 days in ethanol/water” value was “Crystalline” and the “Slurry for 5 days in water” value is “Crystalline”.

Turning to `CC(C)Oc1ccc(-c2nc(-c3cccc4c3CC[C@@H]4NCCO)no2)cc1C#N.O=C(O)C(O)C(O)C(=O)O` [Ozanimod L-tartrate Form 1], in data set [2], the “Slurry for 5 days in ethanol/water” value is reported as “Crystalline” and the “Slurry for 5 days in water” value is given as “Crystalline”.

`CC(C)Oc1ccc(-c2nc(-c3cccc4c3CCC4NCCO)no2)cc1C#N.O=C(O)CC(O)(CC(=O)O)C(=O)O` (stereo not drawn) [Ozanimod citrate Form 1]: in data set [2], the “Slurry for 5 days in ethanol/water” value is given as “Crystalline” and the “Slurry for 5 days in water” value is given as “Crystalline”.

For the compound `CC(C)Oc1ccc(-c2nc(-c3cccc4c3CC[C@@H]4NCCO)no2)cc1C#N.O=C(O)/C=C\C(=O)O` [Ozanimod maleate Form 1], the “25° C. water solubility” value in data set [1] (25° C.) worked out at 1200 µg/mL. In data set [1] (37° C.), the “37° C. water solubility” value came out at 5290 µg/mL. For the same compound, in data set [2], the “Slurry for 5 days in ethanol/water” value is reported as “Crystalline” and the “Slurry for 5 days in water” value was “Crystalline”.

Regarding `CC(C)Oc1ccc(-c2nc(-c3cccc4c3CC[C@@H]4NCCO)no2)cc1C#N.O=P(O)(O)O` [Ozanimod dihydrogen phosphate Form 1], in data set [1] (25° C.), the “25° C. water solubility” value was 2540 µg/mL. Moreover, the “37° C. water solubility” value in data set [1] (37° C.) was determined as 7710 µg/mL. Further, in data set [2], the “Slurry for 5 days in ethanol/water” value is “Crystalline” and the “Slurry for 5 days in water” value is reported as “Crystalline”.

Turning to `CC(C)Oc1ccc(-c2nc(-c3cccc4c3CC[C@@H]4NCCO)no2)cc1C#N.CS(=O)(=O)O` [Ozanimod mesylate Form 1], in data set [1] (25° C.), the “25° C. water solubility” value was 17600 µg/mL. Also, the “37° C. water solubility” value in data set [1] (37° C.) came to 53820 µg/mL. In addition, in data set [2], the “Slurry for 5 days in ethanol/water” value is “Crystalline” and the “Slurry for 5 days in water” value was “Crystalline”.

Source of the values: patent US20200031784A1, “OZANIMOD ADDITION SALT CRYSTAL, PREPARATION METHOD, PHARMACEUTICAL COMPOSITION, AND USES” (Solipharma LLC, priority 2017, published 2020).
